Assay results reported in patent publication US20240246946A1, “MODULATORS OF TREX1” (Constellation Pharmaceuticals, Inc., priority 2021, published 2024).
Like-named read-outs stand apart in the source and are kept apart here.

How the values were obtained:
full length mouse TREX1 = molecular target: T1, full length mouse TREX1 (Mus musculus, UniProt Q91XB0); test: mTREX1 Biochemical Assay (fluorescence, dsDNA substrate degradation)
T1 construct: N-terminally His-Tev tagged full length mouse TREX1; made in house; host or cells: E. coli
T1 sequence (Q91XB0 1-314): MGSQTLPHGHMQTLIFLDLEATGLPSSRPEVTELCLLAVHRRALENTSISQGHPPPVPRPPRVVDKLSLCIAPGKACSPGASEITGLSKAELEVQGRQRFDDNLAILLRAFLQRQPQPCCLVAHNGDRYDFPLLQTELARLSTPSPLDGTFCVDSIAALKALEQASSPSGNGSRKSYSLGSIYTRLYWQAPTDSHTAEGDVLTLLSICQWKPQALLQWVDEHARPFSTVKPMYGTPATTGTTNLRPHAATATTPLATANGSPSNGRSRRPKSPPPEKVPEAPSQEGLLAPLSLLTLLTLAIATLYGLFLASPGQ
Procedure, shortened: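 Reaction run 18 h at 25° C. with 60 nM TEX615/quencher-labelled dsDNA and 6 pM mouse TREX1 in Tris buffer (pH 7.4, 5 mM MgCl2, 1.0% DMSO), enzyme having sat 4 h with compound across 10 concentrations. EDTA quench; substrate degradation measured as fluorescence increase.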

full length human TREX1 = molecular target: T2, full length human TREX1 (Homo sapiens, UniProt Q9NSU2); test: hTREX1 Biochemical Assay (fluorescence, dsDNA substrate degradation)
T2 construct: N-terminally His-Tev tagged full length human TREX1; made in house; host or cells: E. coli
T2 sequence (Q9NSU2 1-314): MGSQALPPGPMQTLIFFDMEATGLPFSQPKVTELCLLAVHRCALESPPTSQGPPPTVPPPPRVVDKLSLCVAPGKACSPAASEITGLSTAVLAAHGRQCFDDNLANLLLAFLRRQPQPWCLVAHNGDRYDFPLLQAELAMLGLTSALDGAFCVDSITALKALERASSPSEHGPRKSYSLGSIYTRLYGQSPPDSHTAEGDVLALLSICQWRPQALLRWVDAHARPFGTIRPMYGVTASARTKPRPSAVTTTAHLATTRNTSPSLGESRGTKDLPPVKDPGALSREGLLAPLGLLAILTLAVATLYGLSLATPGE
Procedure, shortened: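 Fluorescence rises as enzyme degrades a quenched TEX615-labelled dsDNA substrate (60 nM) in 50 mM Tris, 150 mM NaCl, 5 mM MgCl2, pH 7.4. Full-length His-Tev-tagged human TREX1, 4 pM, sits with compound 4 hours at 25° C before substrate; reaction 18 hours, stopped with EDTA.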

[1] = biochemical, read-out: mTREX1 IC50
[2] = biochemical, read-out: hTREX1 IC50

| Compound | IC50 (full length mouse TREX1; [1]) [nM] | IC50 (full length human TREX1; [2]) [nM] | IC50 (full length mouse TREX1; mTREX1 IC50, biochemical) [nM] | IC50 (full length human TREX1; hTREX1 IC50, biochemical) [nM] |
| --- | --- | --- | --- | --- |
| Cc1ccnn1C(c1ccccc1Cl)C(C)c1nc(C(=O)Nc2cnoc2)c(O)c(=O)n1C (single isomer, unassigned) [Example 54 D1E1] | – | – | 1 to 10 | 1 to 10 |
| Cc1ccnn1C(c1ccccc1Cl)C(C)c1nc(C(=O)Nc2cnoc2)c(O)c(=O)n1C (single isomer, unassigned) [Example 54 D1E2] | – | – | > 10 | > 10 |
| Cc1nn(C)cc1C(c1ccc(F)cc1C#N)C(C)c1nc(C(=O)Nc2cnoc2)c(O)c(=O)n1C (single isomer, unassigned) [Example 56 D2E1] | > 10 | 1 to 10 | – | – |
| Cc1nn(C)cc1C(c1ccc(F)cc1C#N)C(C)c1nc(C(=O)Nc2cnoc2)c(O)c(=O)n1C (single isomer, unassigned) [Example 56 D2E2] | > 10 | > 10 | – | – |
| Cc1nn(C)cc1C(c1cc(F)ccc1C#N)C(C)c1nc(C(=O)Nc2cnoc2)c(O)c(=O)n1C (single isomer, unassigned) [Example 57 D2E2] | > 10 | > 10 | – | – |
| CC(c1nc(C(=O)Nc2cnoc2)c(O)c(=O)n1C)C(c1cnn(C)c1)c1cc(F)ccc1Cl (single isomer, unassigned) [Example 61 D1E2] | > 10 | > 10 | – | – |
| CC(c1nc(C(=O)Nc2cnoc2)c(O)c(=O)n1C)C(c1cnn(C)c1)c1cc(F)ccc1Cl (single isomer, unassigned) [Example 61 D2E1] | > 10 | > 10 | – | – |
| CC(c1nc(C(=O)Nc2cnoc2)c(O)c(=O)n1C)C(c1cnn(C)c1)c1cc(F)ccc1Cl (single isomer, unassigned) [Example 61 D2E2] | > 10 | > 10 | – | – |
| Cc1nn(C)cc1C(c1cc(F)ccc1Cl)C(C)c1nc(C(=O)Nc2cnoc2)c(O)c(=O)n1C (single isomer, unassigned) [Example 62 D1E1] | > 10 | > 10 | – | – |
| Cc1nn(C)cc1C(c1cc(F)ccc1Cl)C(C)c1nc(C(=O)Nc2cnoc2)c(O)c(=O)n1C (single isomer, unassigned) [Example 62 D1E2] | > 10 | > 10 | – | – |
| Cc1nn(C)cc1C(c1cc(F)ccc1Cl)C(C)c1nc(C(=O)Nc2cnoc2)c(O)c(=O)n1C (single isomer, unassigned) [Example 62 D2E1] | > 10 | > 10 | – | – |
| Cc1cc(C(c2ccccc2C#N)C(C)c2nc(C(=O)Nc3cnoc3)c(O)c(=O)n2C)n(C)n1 (single isomer, unassigned) [Example 63 D2E1] | > 10 | > 10 | – | – |
| Cc1cc(C(c2ccccc2C#N)C(C)c2nc(C(=O)Nc3cnoc3)c(O)c(=O)n2C)n(C)n1 (single isomer, unassigned) [Example 63 D2E2] | > 10 | > 10 | – | – |
| Cc1cn(C)nc1C(c1ccccc1C#N)C(C)c1nc(C(=O)Nc2cnoc2)c(O)c(=O)n1C (single isomer, unassigned) [Example 64 D1E1] | > 10 | < 1 | – | – |
| Cc1cn(C)nc1C(c1ccccc1C#N)C(C)c1nc(C(=O)Nc2cnoc2)c(O)c(=O)n1C (single isomer, unassigned) [Example 64 D1E2] | > 10 | > 10 | – | – |
| Cc1cn(C)nc1C(c1ccccc1C#N)C(C)c1nc(C(=O)Nc2cnoc2)c(O)c(=O)n1C (single isomer, unassigned) [Example 64 D2E2] | > 10 | > 10 | – | – |
| CCn1ncc(C(c2ccc(F)cc2C#N)C(C)c2nc(C(=O)Nc3cnoc3)c(O)c(=O)n2C)c1C (single isomer, unassigned) [Example 65 D1E2] | > 10 | > 10 | – | – |
| CCn1ncc(C(c2ccc(F)cc2C#N)C(C)c2nc(C(=O)Nc3cnoc3)c(O)c(=O)n2C)c1C (single isomer, unassigned) [Example 65 D2E2] | > 10 | < 1 | – | – |
| CC(c1nc(C(=O)Nc2cnoc2)c(O)c(=O)n1C)C(c1cnccn1)c1ccccc1C#N (single isomer, unassigned) [Example 66 D1E2] | > 10 | 1 to 10 | – | – |
| CC(c1nc(C(=O)Nc2cnoc2)c(O)c(=O)n1C)C(c1cnccn1)c1ccccc1C#N (single isomer, unassigned) [Example 66 D2E1] | > 10 | 1 to 10 | – | – |
| CC(c1nc(C(=O)Nc2cnoc2)c(O)c(=O)n1C)C(c1cnccn1)c1ccccc1C#N (single isomer, unassigned) [Example 66 D2E2] | > 10 | > 10 | – | – |
| CCn1ncc(C(c2ccccc2C#N)C(C)c2nc(C(=O)Nc3cnoc3)c(O)c(=O)n2C)c1C (single isomer, unassigned) [Example 68 D1E2] | > 10 | > 10 | – | – |
| CCn1ncc(C(c2ccccc2C#N)C(C)c2nc(C(=O)Nc3cnoc3)c(O)c(=O)n2C)c1C (single isomer, unassigned) [Example 68 D2E2] | > 10 | > 10 | – | – |
| COCCn1ncc(C(c2ccccc2C#N)C(C)c2nc(C(=O)Nc3cnoc3)c(O)c(=O)n2C)c1C (single isomer, unassigned) [Example 69 D1E2] | > 10 | > 10 | – | – |
| COCCn1ncc(C(c2ccccc2C#N)C(C)c2nc(C(=O)Nc3cnoc3)c(O)c(=O)n2C)c1C (single isomer, unassigned) [Example 69 D2E1] | > 10 | > 10 | – | – |
| CCn1cc(C(c2ccccc2C#N)C(C)c2nc(C(=O)Nc3cnoc3)c(O)c(=O)n2C)c(C)n1 (single isomer, unassigned) [Example 70 D1E2] | > 10 | > 10 | – | – |
| CCn1cc(C(c2ccccc2C#N)C(C)c2nc(C(=O)Nc3cnoc3)c(O)c(=O)n2C)c(C)n1 (single isomer, unassigned) [Example 70 D2E1] | > 10 | 1 to 10 | – | – |
| CCn1cc(C(c2ccccc2C#N)C(C)c2nc(C(=O)Nc3cnoc3)c(O)c(=O)n2C)c(C)n1 (single isomer, unassigned) [Example 70 D2E2] | > 10 | > 10 | – | – |

Further lines, with some results ahead:

| IC50 (full length mouse TREX1; [1]) [nM] | IC50 (full length human TREX1; [2]) [nM] | Compound | IC50 (full length mouse TREX1; mTREX1 IC50, biochemical) [nM] | IC50 (full length human TREX1; hTREX1 IC50, biochemical) [nM] |
| --- | --- | --- | --- | --- |
| > 10 | > 10 | Cc1ccn(C(c2ccccc2Cl)C(C)c2nc(C(=O)Nc3cnoc3)c(O)c(=O)n2C)n1 (single isomer, unassigned) [Example 49 D1E2] | – | – |
| > 10 | > 10 | CC(c1nc(C(=O)Nc2cnoc2)c(O)c(=O)n1C)C(c1cocn1)c1ccccc1C#N (single isomer, unassigned) [Example 50 D1E2] | – | – |
| > 10 | > 10 | CC(c1nc(C(=O)Nc2cnoc2)c(O)c(=O)n1C)C(c1cocn1)c1ccccc1C#N (single isomer, unassigned) [Example 50 D2E2] | – | – |
| > 10 | > 10 | CC(c1nc(C(=O)Nc2cnoc2)c(O)c(=O)n1C)C(c1ncn(C)n1)c1ccccc1C#N (single isomer, unassigned) [Example 51 D1E1] | – | – |
| > 10 | > 10 | CC(c1nc(C(=O)Nc2cnoc2)c(O)c(=O)n1C)C(c1ncn(C)n1)c1ccccc1C#N (single isomer, unassigned) [Example 51 D2E1] | – | – |
| > 10 | > 10 | CC(c1nc(C(=O)Nc2cnoc2)c(O)c(=O)n1C)C(c1ncn(C)n1)c1ccccc1C#N (single isomer, unassigned) [Example 51 D2E2] | – | – |
| > 10 | > 10 | CC(c1nc(C(=O)Nc2cnoc2)c(O)c(=O)n1C)C(c1ccccc1C#N)c1c(C#N)cnn1C (single isomer, unassigned) [Example 52 D1E2] | – | – |
| > 10 | > 10 | CC(c1nc(C(=O)Nc2cnoc2)c(O)c(=O)n1C)C(c1ccccc1C#N)c1c(C#N)cnn1C (single isomer, unassigned) [Example 52 D2E2] | – | – |
| > 10 | > 10 | Cc1cncc(C(c2ccccc2C#N)C(C)c2nc(C(=O)Nc3cnoc3)c(O)c(=O)n2C)n1 (single isomer, unassigned) [Example 53 D1E1] | – | – |
| > 10 | > 10 | Cc1cncc(C(c2ccccc2C#N)C(C)c2nc(C(=O)Nc3cnoc3)c(O)c(=O)n2C)n1 (single isomer, unassigned) [Example 53 D2E1] | – | – |
| > 10 | > 10 | Cc1cncc(C(c2ccccc2C#N)C(C)c2nc(C(=O)Nc3cnoc3)c(O)c(=O)n2C)n1 (single isomer, unassigned) [Example 53 D2E2] | – | – |
| > 10 | > 10 | CCn1cc(C(c2ccc(F)cc2C#N)C(C)c2nc(C(=O)Nc3cnoc3)c(O)c(=O)n2C)c(C)n1 (single isomer, unassigned) [Example 55 D1E2] | – | – |
| > 10 | > 10 | Cc1nn(C)cc1C(c1ccc(F)cc1C#N)C(C)c1nc(C(=O)Nc2cnoc2)c(O)c(=O)n1C (single isomer, unassigned) [Example 56 D1E2] | – | – |
